Measurements taken from patent US20100081825A1, “1-NAPHTHYL ALKYLPIPERIDINE DERIVATIVE” (Taisho Pharmaceutical Co Ltd, priority 2006, published 2010).
Where a name gives a salt, the structure may show the parent alone.

Target: T1, MCH1R (Homo sapiens, UniProt Q99705)
T1 construct: IC50; other: cells stably expressing non-endogenous active MCH1R; 50 nM MCH; Fluo-4 calcium, FDSS6000; list of compounds i
Assay: MCH1R calcium evaluation test (FDSS assay, inhibition of MCH-induced intracellular calcium increase)
Assay type: cell-based
Settings: cells stably expressing non-endogenous active MCH1R; 50 nM MCH; Fluo-4 calcium, FDSS6000
Text: MCH1R Calcium Evaluation Test
An FDSS assay can measure the intracellular calcium concentration and can evaluate the Gq-coupled receptor activity using the calcium concentration as an index. For example, the assay can determine whether an analyte is an antagonist, an inverse agonist or an agonist for a Gq-coupled receptor. The FDSS6000™ system (Hamamatsu Photonics K.K.) is designed to perform evaluation based on functionality such as measurement of intracellular calcium for high-throughput screening. Intracellular calcium release by activation of a Gq-coupled receptor can be fluorometrically measured by incorporating a calcium indicator (such as Fluo4) into cells. On the other hand, the assay cannot measure the activation of Gi- and Go-coupled receptors, because the activation is not associated with calcium signaling pathways.
Intracellular fluorescence can be rapidly and successively measured in a 96-well microplate or a 384-well microplate using a fluorometric imaging plate reader system. FDSS6000™ can simultaneously measure fluorescence in all wells sensitively, accurately and by seconds. This system is ideal for functional analysis in cells such as monitoring of an intracellular calcium flow generated within several seconds after activation of a Gq-coupled receptor.
On the day before the test, cells stably expressing non-endogenous active MCH1R were seeded into a 96-well microplate at 3×10^4 cells per well. 100 μL per well of a medium (Dulbecco's modified Eagle medium containing 10% fetal bovine serum, 2 mM glutamine, 1 mM sodium pyruvate and 0.5 mg/mL G418, pH 7.4) was used for culture. On the day of the test, the medium was removed and an assay buffer {Hank's balanced salt solution containing 20 mM HEPES, 0.5 mM probenecid, 0.05 mg/mL amaranth and 0.2% bovine serum albumin (BSA), pH 7.4} containing 2 μM Fluo-4-AM and 0.04% Pluronic F127 was added at 100 μL per well, followed by incubation in a 5% CO2 incubator at 37° C. for one hour. Thereafter, the buffer was removed and an assay buffer containing each concentration of the test compound was newly added at 150 μL per well, followed by incubation in a 5% CO2 incubator at 37° C. for 30 minutes. An assay buffer containing each concentration of MCH was added at 50 μL per well, and transient changes in the intracellular calcium concentration induced by MCH were monitored using FDSS6000™ at Ex. 488 nm and Em. 530 nm for 180 seconds. In testing the antagonistic activity of the analyte, MCH was added to a final concentration of 50 nM. An inhibition curve was prepared with various concentrations of the analyte, and the concentration of the analyte inhibiting 50% of the increase in intracellular calcium when 50 nM MCH was added (IC50 value) was calculated using data analysis software Origin Ver. 6.

Row | IC50 [nM] | SMILES
1 | 10.4 | COCc1ccc2ccc(CN3CCC(NC(=O)c4cccc(OC)c4)CC3)cc2c1 [Example 13, 3-Methoxy-N-(1-{[7-(methoxymethyl)-2-naphthyl]methyl}piperidin-4-yl)benzamide]
2 | 5.67 | COCCOCc1ccc2ccc(CN3CCC(NC(=O)c4cccc(OC)c4)CC3)cc2c1 [Example 26, 3-Methoxy-N-[1-({7-[(2-methoxyethoxy)methyl]-2-naphthyl}methyl)piperidin-4-yl]benzamide]
3 | 9.68 | COc1cccc(C(=O)NC2CCN(Cc3ccc4ccc(CNCCN5CCCC5)cc4c3)CC2)c1 [Example 48, 3-Methoxy-N-{1-[(7-{[(2-pyrrolidin-1-ylethyl)amino]methyl}-2-naphthyl)methyl]piperidin-4-yl}benzamide]
4 | 7.08 | COc1cccc(C(=O)NC2CCN(Cc3ccc4ccc(CNCCN(C)C)cc4c3)CC2)c1 [Example 49, N-(1-{[7-({[2-(Dimethylamino)ethyl]amino}methyl)-2-naphthyl]methyl}piperidin-4-yl)-3-methoxybenzamide]
5 | 7.14 | COc1cccc(C(=O)NC2CCN(Cc3ccc4ccc(CNCCN)cc4c3)CC2)c1 [Example 64, N-{1-[(7-{[(2-Aminoethyl)amino]methyl}-2-naphthyl)methyl]piperidin-4-yl}-3-methoxybenzamide trihydrochloride]
6 | 6.51 | CNCCNCc1ccc2ccc(CN3CCC(NC(=O)c4cccc(OC)c4)CC3)cc2c1 [Example 67, 3-Methoxy-N-(1-{[7-({[2-(methylamino)ethyl]amino}methyl)-2-naphthyl]methyl}piperidin-4-yl)benzamide trihydrochloride]
7 | 7.41 | COc1cccc(C(=O)NC2CCN(Cc3ccc4ccc(CCO)cc4c3)CC2)c1 [Example 120, N-(1-{[7-(2-hydroxyethyl)-2-naphthyl]methyl}piperidin-4-yl)-3-methoxybenzamide]

Second part, the compound before the results:

Row | SMILES | IC50 [nM]
8 | CCOCc1ccc2ccc(CN3CCC(NC(=O)c4ccc(F)c(Cl)c4)CC3)cc2c1 [Example 6, 3-chloro-N-(1-{[7-(ethoxymethyl)-2-naphthyl]methyl}piperidin-4-yl)-4-fluorobenzamide] | 3.54
9 | COCc1ccc2ccc(CN3CCC(NC(=O)c4cc(OC)cc(OC)c4)CC3)cc2c1 [Example 10, 3,5-Dimethoxy-N-(1-{[7-(methoxymethyl)-2-naphthyl]methyl}piperidin-4-yl)benzamide] | 4.99
10 | COc1cccc(C(=O)NC2CCN(Cc3ccc4ccc(COCCN5CCCC5)cc4c3)CC2)c1 [Example 36, 3-Methoxy-N-[1-({7-[(2-pyrrolidin-1-ylethoxy)methyl]-2-naphthyl}methyl)piperidin-4-yl]benzamide] | 6.11
11 | COc1cccc(C(=O)NC2CCN(Cc3ccc4ccc(COCCN(C)C)cc4c3)CC2)c1 [Example 37, N-{1-[(7-{[2-(dimethylamino)ethoxy]methyl}-2-naphthyl)methyl]piperidin-4-yl}-3-methoxybenzamide] | 4.89
12 | COCCOCc1ccc2ccc(CN3CCC(NC(=O)c4cccc(C(C)=O)c4)CC3)cc2c1 [Example 90, 3-Acetyl-N-[1-({7-[(2-methoxyethoxy)methyl]-2-naphthyl}methyl)piperidin-4-yl]benzamide] | 7.69
